Assay results published in article PMC5298231, “The Malaria Parasite's Lactate Transporter PfFNT Is the Target of Antiplasmodial Compounds Identified in Whole Cell Phenotypic Screens” (PLoS Pathogens, 2017).
Read-outs that look alike come from different tables or passages of the source.

Tested on: erythrocytes infected with 3D7 trophozoites
Format: cell-based, Plasmodium falciparum
Conditions: 6 μM

## COc1ccc2c(c1)OC(O)(C(F)(F)C(F)(F)F)CC2=O (stereo not drawn) [MMV007839]
Av 1hr
  ESFG log2 ratio (+MMV007839/-MMV007839): 0.4045
  EVGG log2 ratio (+MMV007839/-MMV007839): 0.01776
  Erythrose 4-phosphate log2 ratio (+MMV007839/-MMV007839): -0.3514
  FAD log2 ratio (+MMV007839/-MMV007839): -0.08791
  FMN log2 ratio (+MMV007839/-MMV007839): -0.2425
  Farnesyl diphosphate log2 ratio (+MMV007839/-MMV007839): -0.0002912
  Folate log2 ratio (+MMV007839/-MMV007839): -0.2316
  Fructose-1-6-bisphosphate log2 ratio (+MMV007839/-MMV007839): 1.122
  Fructose-6-Phosphate log2 ratio (+MMV007839/-MMV007839): 0.08818
  GDP log2 ratio (+MMV007839/-MMV007839): -0.6846
  GDP-mannose log2 ratio (+MMV007839/-MMV007839): 0.01571
  GMP log2 ratio (+MMV007839/-MMV007839): -1.125
  GTP log2 ratio (+MMV007839/-MMV007839): -0.5732
  Geranylgeranyl pyrophosphate log2 ratio (+MMV007839/-MMV007839): -0.5786
  Gluconate log2 ratio (+MMV007839/-MMV007839): 0.1947
  Glucose-6-Phosphate log2 ratio (+MMV007839/-MMV007839): -0.1863
  Glutamate log2 ratio (+MMV007839/-MMV007839): 0.1005
  Glutamine log2 ratio (+MMV007839/-MMV007839): 0.7703
  Glutathione disulfide log2 ratio (+MMV007839/-MMV007839): 0.1943
  Glutathione log2 ratio (+MMV007839/-MMV007839): -0.1919
  Glyceraldehyde 3-phosphate log2 ratio (+MMV007839/-MMV007839): -0.7606
  Glycerone phosphate log2 ratio (+MMV007839/-MMV007839): 0.5926
  HLD log2 ratio (+MMV007839/-MMV007839): -0.3486
  HVDD log2 ratio (+MMV007839/-MMV007839): -0.6691
  Histidine log2 ratio (+MMV007839/-MMV007839): 0.5758
  Homoserine log2 ratio (+MMV007839/-MMV007839): 0.3097
  Hydroxy-L-proline log2 ratio (+MMV007839/-MMV007839): 0.2443
  Hypoxanthine log2 ratio (+MMV007839/-MMV007839): 0.3704
  IDP log2 ratio (+MMV007839/-MMV007839): -0.1758
  IMP log2 ratio (+MMV007839/-MMV007839): -0.02277
  Inosine log2 ratio (+MMV007839/-MMV007839): 0.5137
  Isoleucine log2 ratio (+MMV007839/-MMV007839): 0.3056
  LD log2 ratio (+MMV007839/-MMV007839): 0.3825
  Lactate log2 ratio (+MMV007839/-MMV007839): 2.358
  Leucine log2 ratio (+MMV007839/-MMV007839): 0.1553
  Lysine log2 ratio (+MMV007839/-MMV007839): 1.68
  Malate log2 ratio (+MMV007839/-MMV007839): 0.1358
  Mannitol log2 ratio (+MMV007839/-MMV007839): 0.0108
  Methionine log2 ratio (+MMV007839/-MMV007839): 0.2615
  Myristic acid log2 ratio (+MMV007839/-MMV007839): 0.2261
  N-Acetyl-glutamate log2 ratio (+MMV007839/-MMV007839): -0.007377
  N-Carbamoyl-L-aspartate log2 ratio (+MMV007839/-MMV007839): -1.378
  NAD+ log2 ratio (+MMV007839/-MMV007839): 0.03204
  NADH log2 ratio (+MMV007839/-MMV007839): -1.36
  NADP+ log2 ratio (+MMV007839/-MMV007839): -0.2617
  Octoluse Bisphosphate log2 ratio (+MMV007839/-MMV007839): 1.912
  Ornithine log2 ratio (+MMV007839/-MMV007839): 0.2172
  Orotate log2 ratio (+MMV007839/-MMV007839): -1.216
  Orotidine 5-phosphate log2 ratio (+MMV007839/-MMV007839): -1.5
  Orotidine log2 ratio (+MMV007839/-MMV007839): -0.4366
  PAEF log2 ratio (+MMV007839/-MMV007839): -0.4364
  PAVH log2 ratio (+MMV007839/-MMV007839): -1.011
  PD log2 ratio (+MMV007839/-MMV007839): 0.2765
  PDAV log2 ratio (+MMV007839/-MMV007839): 0.344
  PE log2 ratio (+MMV007839/-MMV007839): 1.21
  PEE log2 ratio (+MMV007839/-MMV007839): 0.2418
  PHF log2 ratio (+MMV007839/-MMV007839): 1.069
  PPVQ log2 ratio (+MMV007839/-MMV007839): 0.02129
  PVNF log2 ratio (+MMV007839/-MMV007839): -0.3384
  PVQ log2 ratio (+MMV007839/-MMV007839): 0.8749
  PVQA log2 ratio (+MMV007839/-MMV007839): -0.7385
  Pantothenate log2 ratio (+MMV007839/-MMV007839): -0.01312
  Phenylalanine log2 ratio (+MMV007839/-MMV007839): 0.1979
  Phosphoenolpyruvate log2 ratio (+MMV007839/-MMV007839): 0.299
  Pipecolate log2 ratio (+MMV007839/-MMV007839): 0.4539
  Proline log2 ratio (+MMV007839/-MMV007839): 0.1646
  Pyridoxine log2 ratio (+MMV007839/-MMV007839): 0.1656
  Pyruvate log2 ratio (+MMV007839/-MMV007839): 1.42
  Ribose-5-phosphate log2 ratio (+MMV007839/-MMV007839): 0.9115
  S-Adenosyl-L-homocysteine log2 ratio (+MMV007839/-MMV007839): -0.1282
  SDGLA log2 ratio (+MMV007839/-MMV007839): -0.148
  SFGD log2 ratio (+MMV007839/-MMV007839): -0.0354
  Sedoheptoluse bisphosphate log2 ratio (+MMV007839/-MMV007839): 0.6095
  Sedoheptulose-1/7-phosphate log2 ratio (+MMV007839/-MMV007839): 0.1578
  Serine log2 ratio (+MMV007839/-MMV007839): 0.004434
  Succinate log2 ratio (+MMV007839/-MMV007839): 0.4975
  Succinate semialdehyde log2 ratio (+MMV007839/-MMV007839): -0.3802
  TNVK log2 ratio (+MMV007839/-MMV007839): -0.9736
  Threonine log2 ratio (+MMV007839/-MMV007839): 0.4202
  Tryptophan log2 ratio (+MMV007839/-MMV007839): 0.09509
  Tyrosine log2 ratio (+MMV007839/-MMV007839): 0.1697
  UDP log2 ratio (+MMV007839/-MMV007839): -0.1565
  UDP-N-acetyl-D-glucosamine log2 ratio (+MMV007839/-MMV007839): 0.0845
  UDP-glucose log2 ratio (+MMV007839/-MMV007839): -0.08513
  UMP log2 ratio (+MMV007839/-MMV007839): -0.3602
  Uracil log2 ratio (+MMV007839/-MMV007839): -0.4869
  Uric Acid log2 ratio (+MMV007839/-MMV007839): 0.02649
  VD log2 ratio (+MMV007839/-MMV007839): 1.818
  Valine log2 ratio (+MMV007839/-MMV007839): 0.1364
  Xanthine log2 ratio (+MMV007839/-MMV007839): 0.3309
  dADP log2 ratio (+MMV007839/-MMV007839): -0.3244
  dATP log2 ratio (+MMV007839/-MMV007839): 0.05147
  dCDP log2 ratio (+MMV007839/-MMV007839): 0.3024
  dGMP log2 ratio (+MMV007839/-MMV007839): 0.08489
  dTMP log2 ratio (+MMV007839/-MMV007839): -0.02247
  dTTP log2 ratio (+MMV007839/-MMV007839): 0.2046
  dUMP log2 ratio (+MMV007839/-MMV007839): 1.26
  myo-Inositol log2 ratio (+MMV007839/-MMV007839): -0.07002
  sn-Glycerol 3-phosphate log2 ratio (+MMV007839/-MMV007839): 1.379
  sn-glycero-3-Phospho-1-inositol log2 ratio (+MMV007839/-MMV007839): -0.128
Av 1hr, medRt 15.0954
  Hexose-phosphate log2 ratio (+MMV007839/-MMV007839): -0.2585
Av 1hr, medRt 16.8944
  6-Phospho-D-gluconate log2 ratio (+MMV007839/-MMV007839): -0.386
Av 1hr, medRt 17.0788
  Hexose-phosphate log2 ratio (+MMV007839/-MMV007839): -1.607
Av 1hr, medRt 17.4636
  6-Phospho-D-gluconate log2 ratio (+MMV007839/-MMV007839): -0.04985
Av 3hr
  1-3 (2-3)-diphopshateglycerate log2 ratio (+MMV007839/-MMV007839): 0.8355
